Measured values taken from patent US12410208B2, “(2-acetamidyl)thio-beta-D-galactopyranoside derivatives” (Idorsia Pharmaceuticals Ltd, priority 2020, dated 2025).
Read-outs that look alike come from different tables or passages of the source.

Assays:
[1] = target: biotinylated human Gal-3 (hGal-3) (Homo sapiens, UniProt P17931); test: Competitive binding assay: biotinylated hGal-3 binding to microplate-adsorbed asialofetuin (ASF), spectrophotometric; conditions: hGal-3, read-out: IC50 (Gal-3 inhibition)
Chain of biotinylated human Gal-3 (hGal-3) (P17931 whole entry): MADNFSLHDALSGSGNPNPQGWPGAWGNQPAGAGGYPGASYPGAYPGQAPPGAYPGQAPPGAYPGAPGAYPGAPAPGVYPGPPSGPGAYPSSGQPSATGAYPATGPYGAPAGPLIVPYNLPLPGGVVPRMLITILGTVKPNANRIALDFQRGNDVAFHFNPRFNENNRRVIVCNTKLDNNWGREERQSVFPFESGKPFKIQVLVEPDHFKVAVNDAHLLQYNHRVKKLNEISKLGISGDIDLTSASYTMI
How it was run: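 Competitive binding of biotinylated hGal-3 to plate-adsorbed asialofetuin was measured with serially diluted compounds over 3 h at 4° C. Bound protein was detected with streptavidin-peroxidase and ABTS substrate by absorbance. IC50 values are means of several measurements.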

human Gal-1 (hGal-1) = human Gal-1 (hGal-1) (Homo sapiens, UniProt P09382); test: Competitive binding assay: biotinylated hGal-1 binding to microplate-adsorbed asialofetuin (ASF), spectrophotometric; conditions: hGal-1 binding to asialofetuin; Table 15; R and S epimers of selected Examples also listed; read-out: IC50 (Galectin-1 inhibition)
Chain of human Gal-1 (hGal-1) (P09382 whole entry): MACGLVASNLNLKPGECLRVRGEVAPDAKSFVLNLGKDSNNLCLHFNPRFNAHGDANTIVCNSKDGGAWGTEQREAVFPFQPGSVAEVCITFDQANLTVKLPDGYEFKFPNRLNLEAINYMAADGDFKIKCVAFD
How it was run: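 Biotinylated hGal-1 (300-1000 ng/mL) incubated with compound on asialofetuin-coated plates 3 hours at 4 °C, washed, then streptavidin-peroxidase (80 ng/mL) 1 hour at 4 °C. ABTS substrate read spectrophotometrically; IC50 reported as mean of several measurements.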

For `CO[C@@H]1[C@@H](n2cc(-c3cc(F)c(F)c(F)c3)nn2)[C@@H](O)[C@@H](CO)O[C@H]1SC(C(=O)N(C)CC(F)(F)F)C1(O)CCC(F)(F)CC1` (stereo partly drawn) [Example 2.44.241.I., 2-(4,4-Difluoro-1-hydroxycyclohexyl)-2-(((2S,3R,4S,5R,6R)-5-hydroxy-6-(hydroxymethyl)-3-methoxy-4-(4-(3,4,5-trifluorophenyl)-1H-1,2,3-triazol-1-yl)tetrahydro-2H-pyran-2-yl)thio)-N-methyl-N-(2,2,2-trifluoroethyl)acetamide], which IC50 ([1]; Table 12) is on record?
Its IC50 is 180 nM.

And the IC50 (human Gal-1 (hGal-1))?
The IC50 was 650 nM.

Which results are given for `CO[C@@H]1[C@@H](n2cc(-c3cc(F)c(F)c(F)c3)nn2)[C@@H](O)[C@@H](CO)O[C@H]1SC(C(=O)N(C)C(C)C)C1(O)CCC(F)(F)CC1` (stereo partly drawn) [Example 2.44.242.I., 2-(4,4-Difluoro-1-hydroxycyclohexyl)-2-(((2S,3R,4S,5R,6R)-5-hydroxy-6-(hydroxymethyl)-3-methoxy-4-(4-(3,4,5-trifluorophenyl)-1H-1,2,3-triazol-1-yl)tetrahydro-2H-pyran-2-yl)thio)-N-isopropyl-N-methylacetamide]?
IC50 ([1]; Table 12): 80 nM; IC50 (human Gal-1 (hGal-1)): 110 nM

Which IC50 ([1]; Table 12) does the source give for `CO[C@@H]1[C@@H](n2cc(-c3cc(F)c(F)c(F)c3)nn2)[C@@H](O)[C@@H](CO)O[C@H]1SC(C(=O)N(C)C1COC1)C1(O)CCC(F)(F)CC1` (stereo partly drawn) [Example 2.44.243.I., 2-(4,4-Difluoro-1-hydroxycyclohexyl)-2-(((2S,3R,4S,5R,6R)-5-hydroxy-6-(hydroxymethyl)-3-methoxy-4-(4-(3,4,5-trifluorophenyl)-1H-1,2,3-triazol-1-yl)tetrahydro-2H-pyran-2-yl)thio)-N-methyl-N-(oxetan-3-yl)acetamide] here?
Its IC50 is 110 nM.

And the IC50 (human Gal-1 (hGal-1))?
The IC50 was 170 nM.

How did the IC50 ([1]; Table 12) turn out when `CO[C@@H]1[C@@H](n2cc(-c3cc(F)c(F)c(F)c3)nn2)[C@@H](O)[C@@H](CO)O[C@H]1SC(C(=O)N1CCOCC1)C1(O)CCC(F)(F)CC1` (stereo partly drawn) [Example 2.44.244.I., 2-(4,4-Difluoro-1-hydroxycyclohexyl)-2-(((2S,3R,4S,5R,6R)-5-hydroxy-6-(hydroxymethyl)-3-methoxy-4-(4-(3,4,5-trifluorophenyl)-1H-1,2,3-triazol-1-yl)tetrahydro-2H-pyran-2-yl)thio)-1-morpholinoethan-1-one] was run?
Its IC50 is 70 nM.

And the IC50 (human Gal-1 (hGal-1))?
The IC50 was 100 nM.

For `CO[C@@H]1[C@@H](n2cc(-c3cc(F)c(F)c(F)c3)nn2)[C@@H](O)[C@@H](CO)O[C@H]1SC(C(=O)N1CCC(C)(C)CC1)C1(O)CCC(F)(F)CC1` (stereo partly drawn) [Example 2.44.245.I., 2-(4,4-Difluoro-1-hydroxycyclohexyl)-1-(4,4-dimethylpiperidin-1-yl)-2-(((2S,3R,4S,5R,6R)-5-hydroxy-6-(hydroxymethyl)-3-methoxy-4-(4-(3,4,5-trifluorophenyl)-1H-1,2,3-triazol-1-yl)tetrahydro-2H-pyran-2-yl)thio)ethan-1-one], which IC50 ([1]; Table 12) is on record?
The IC50 was 90 nM.

And the IC50 (human Gal-1 (hGal-1))?
Its IC50 is 210 nM.

Which results are given for `CO[C@@H]1[C@@H](n2cc(-c3cc(F)c(F)c(F)c3)nn2)[C@@H](O)[C@@H](CO)O[C@H]1SC(C(=O)N(C)C1CCC(C)(C)CC1)C1(O)CCC(F)(F)CC1` (stereo partly drawn) [Example 2.44.246.I., 2-(4,4-Difluoro-1-hydroxycyclohexyl)-N-(4,4-dimethylcyclohexyl)-2-(((2S,3R,4S,5R,6R)-5-hydroxy-6-(hydroxymethyl)-3-methoxy-4-(4-(3,4,5-trifluorophenyl)-1H-1,2,3-triazol-1-yl)tetrahydro-2H-pyran-2-yl)thio)-N-methylacetamide]?
IC50 ([1]; Table 12): 320 nM; IC50 (human Gal-1 (hGal-1)): 1200 nM

What does the source list for `CO[C@@H]1[C@@H](n2cc(-c3cc(F)c(F)c(F)c3)nn2)[C@@H](O)[C@@H](CO)O[C@H]1SC(C(=O)N(C)C12CC(C1)C2)C1(O)CCC(F)(F)CC1` (stereo partly drawn) [Example 2.44.247.I., N-(Bicyclo[1.1.1]pentan-1-yl)-2-(4,4-difluoro-1-hydroxycyclohexyl)-2-(((2S,3R,4S,5R,6R)-5-hydroxy-6-(hydroxymethyl)-3-methoxy-4-(4-(3,4,5-trifluorophenyl)-1H-1,2,3-triazol-1-yl)tetrahydro-2H-pyran-2-yl)thio)-N-methylacetamide]?
IC50 ([1]; Table 12): 50 nM; IC50 (human Gal-1 (hGal-1)): 30 nM

Which results are given for `CNC(=O)C(S[C@@H]1O[C@H](CO)[C@H](O)[C@H](n2cc(-c3cc(F)c(F)c(F)c3)nn2)[C@H]1OC)C1(O)CCC(F)(F)CC1` (stereo partly drawn) [Example 2.44.248.I., 2-(4,4-Difluoro-1-hydroxycyclohexyl)-2-(((2S,3R,4S,5R,6R)-5-hydroxy-6-(hydroxymethyl)-3-methoxy-4-(4-(3,4,5-trifluorophenyl)-1H-1,2,3-triazol-1-yl)tetrahydro-2H-pyran-2-yl)thio)-N-methylacetamide]?
IC50 ([1]; Table 12): 490 nM; IC50 (human Gal-1 (hGal-1)): 730 nM

Which IC50 ([1]; Table 12) does the source give for `CO[C@@H]1[C@@H](n2cc(-c3cc(F)c(F)c(F)c3)nn2)[C@@H](O)[C@@H](CO)O[C@H]1SC(C(=O)NC1CCOCC1)C1(O)CCC(F)(F)CC1` (stereo partly drawn) [Example 2.44.249.I., 2-(4,4-Difluoro-1-hydroxycyclohexyl)-2-(((2S,3R,4S,5R,6R)-5-hydroxy-6-(hydroxymethyl)-3-methoxy-4-(4-(3,4,5-trifluorophenyl)-1H-1,2,3-triazol-1-yl)tetrahydro-2H-pyran-2-yl)thio)-N-(tetrahydro-2H-pyran-4-yl)acetamide] here?
The IC50 was 80 nM.

And the IC50 (human Gal-1 (hGal-1))?
Its IC50 is 360 nM.

`CCC(CC)NC(=O)C(S[C@@H]1O[C@H](CO)[C@H](O)[C@H](n2cc(-c3cc(F)c(F)c(F)c3)nn2)[C@H]1OC)C1(O)CCC(F)(F)CC1` (stereo partly drawn) [Example 2.44.250.I., 2-(4,4-Difluoro-1-hydroxycyclohexyl)-2-(((2S,3R,4S,5R,6R)-5-hydroxy-6-(hydroxymethyl)-3-methoxy-4-(4-(3,4,5-trifluorophenyl)-1H-1,2,3-triazol-1-yl)tetrahydro-2H-pyran-2-yl)thio)-N-(pentan-3-yl)acetamide] was tested. Which IC50 ([1]; Table 12) did it give?
The IC50 was 50 nM.

What about the IC50 (human Gal-1 (hGal-1)) of the same molecule?
Its IC50 is 270 nM.

For `CO[C@@H]1[C@@H](n2cc(-c3cc(F)c(F)c(F)c3)nn2)[C@@H](O)[C@@H](CO)O[C@H]1SC(C(=O)NC(C)C)C1(O)CCC(F)(F)CC1` (stereo partly drawn) [Example 2.44.251.I., 2-(4,4-Difluoro-1-hydroxycyclohexyl)-2-(((2S,3R,4S,5R,6R)-5-hydroxy-6-(hydroxymethyl)-3-methoxy-4-(4-(3,4,5-trifluorophenyl)-1H-1,2,3-triazol-1-yl)tetrahydro-2H-pyran-2-yl)thio)-N-isopropylacetamide], which IC50 ([1]; Table 12) is on record?
The IC50 was 90 nM.

What about the IC50 (human Gal-1 (hGal-1)) of the same molecule?
Its IC50 is 190 nM.

For `CO[C@@H]1[C@@H](n2cc(-c3cc(F)c(F)c(F)c3)nn2)[C@@H](O)[C@@H](CO)O[C@H]1SC(C(=O)NCCC(C)(C)C)C1(O)CCC(F)(F)CC1` (stereo partly drawn) [Example 2.44.252.I., 2-(4,4-Difluoro-1-hydroxycyclohexyl)-N-(3,3-dimethylbuty1)-2-(((2S,3R,4S,5R,6R)-5-hydroxy-6-(hydroxymethyl)-3-methoxy-4-(4-(3,4,5-trifluorophenyl)-1H-1,2,3-triazol-1-yl)tetrahydro-2H-pyran-2-yl)thio)acetamide], which IC50 ([1]; Table 12) is on record?
The IC50 was 320 nM.

What about the IC50 (human Gal-1 (hGal-1)) of the same molecule?
Its IC50 is 830 nM.

Which results are given for `CO[C@@H]1[C@@H](n2cc(-c3cc(F)c(F)c(F)c3)nn2)[C@@H](O)[C@@H](CO)O[C@H]1SC(C(=O)NC1CC(F)(F)C1)C1(O)CCC(F)(F)CC1` (stereo partly drawn) [Example 2.44.253.I., 2-(4,4-Difluoro-1-hydroxycyclohexyl)-N-(3,3-difluorocyclobutyl)-2-(((2S,3R,4S,5R,6R)-5-hydroxy-6-(hydroxymethyl)-3-methoxy-4-(4-(3,4,5-trifluorophenyl)-1H-1,2,3-triazol-1-yl)tetrahydro-2H-pyran-2-yl)thio)acetamide]?
IC50 ([1]; Table 12): 160 nM; IC50 (human Gal-1 (hGal-1)): 670 nM

With `CO[C@@H]1[C@@H](n2cc(-c3cc(F)c(F)c(F)c3)nn2)[C@@H](O)[C@@H](CO)O[C@H]1SC(C(=O)NCC(F)(F)F)C1(O)CCC(F)(F)CC1` (stereo partly drawn) [Example 2.44.254.I., 2-(4,4-Difluoro-1-hydroxycyclohexyl)-2-(((2S,3R,4S,5R,6R)-5-hydroxy-6-(hydroxymethyl)-3-methoxy-4-(4-(3,4,5-trifluorophenyl)-1H-1,2,3-triazol-1-yl)tetrahydro-2H-pyran-2-yl)thio)-N-(2,2,2-trifluoroethyl)acetamide] as the molecule, how does the IC50 ([1]; Table 12) read?
Its IC50 is 130 nM.

And the IC50 (human Gal-1 (hGal-1))?
The IC50 was 300 nM.

How did the IC50 ([1]; Table 10) turn out when `CCN(CC1CC(F)(F)C1)C(=O)C(S[C@@H]1O[C@H](CO)[C@H](O)[C@H](n2cc(-c3cc(F)c(F)c(F)c3)nn2)[C@H]1OC)C1(O)CCC(F)(F)CC1` (stereo partly drawn) [Example 2.44.256.I.] was run?
The IC50 was 50 nM.

And the IC50 (human Gal-1 (hGal-1))?
The IC50 was 130 nM.

Which IC50 ([1]; Table 10) does the source give for `CCN(C(=O)C(S[C@@H]1O[C@H](CO)[C@H](O)[C@H](n2cc(-c3cc(F)c(F)c(F)c3)nn2)[C@H]1OC)C1(O)CCC(F)(F)CC1)C1CCOCC1` (stereo partly drawn) [Example 2.44.257.I.] here?
Its IC50 is 70 nM.

What about the IC50 (human Gal-1 (hGal-1)) of the same molecule?
The IC50 was 180 nM.

How did the IC50 ([1]; Table 8) turn out when `CCN(C)C(=O)[C@H](S[C@@H]1O[C@H](CO)[C@H](O)[C@H](n2cc(-c3cc(F)c(F)c(F)c3)nn2)[C@H]1O)C1(O)CCN(S(C)(=O)=O)CC1` [Example 2.47.203R., (R)-2-(((2S,3R,4S,5R,6R)-3,5-Dihydroxy-6-(hydroxymethyl)-4-(4-(3,4,5-trifluorophenyl)-1H-1,2,3-triazol-1-yl)tetrahydro-2H-pyran-2-yl)thio)-N-ethyl-2-(4-hydroxy-1-(methylsulfonyl)piperidin-4-yl)-N-methylacetamide] was run?
Its IC50 is 6770 nM.

What about the IC50 (human Gal-1 (hGal-1)) of the same molecule?
Its IC50 is 33900 nM.

How did the IC50 ([1]; Table 8) turn out when `CCN(C)C(=O)C(S[C@@H]1O[C@H](CO)[C@H](O)[C@H](n2cc(-c3cc(F)c(F)c(F)c3)nn2)[C@H]1O)C1(O)CCN(C(=O)NC2CC2)CC1` (stereo partly drawn) [Example 2.49.203., N-Cyclopropyl-4-(1-(((2S,3R,4S,5R,6R)-3,5-dihydroxy-6-(hydroxymethyl)-4-(4-(3,4,5-trifluorophenyl)-1H-1,2,3-triazol-1-yl)tetrahydro-2H-pyran-2-yl)thio)-2-(ethyl(methyl)amino)-2-oxoethyl)-4-hydroxypiperidine-1-carboxamide] was run?
Its IC50 is 50 nM.

And the IC50 (human Gal-1 (hGal-1))?
The IC50 was 70 nM.
